Data published in PMC6202177 (Nature chemical biology, 2018).

Tests used:
P18-I10/H2-D^d/hβ2m [1] = test: NMR titration and line shape analysis of TAPBPR onto P18-I10/H2-D^d/hβ2m; assay type: binding, murine H2-D^d, human β2m; conditions: slow exchange on the chemical shift timescale, in words
peptide-deficient H2-D^d = test: SEC binding of TAPBPR; design: species or system murine H2-D^d; conditions: in words
RGPGC/H2-D^d S73C = test: SEC binding of TAPBPR; design: species or system murine H2-D^d; conditions: partially loaded RGPGC/H2-D^d S73C, in words
P18-I10/H2-D^d = test: SEC binding of TAPBPR; design: species or system murine H2-D^d; conditions: fully-loaded P18-I10/H2-D^d, in words
[…]/HLA-B*15:01/hβ2m = SEC binding of TAPBPR; design: species or system human
[…]/HLA-B*27:02/hβ2m = SEC binding of TAPBPR; design: species or system human
[…]/HLA-A*01:01/hβ2m = NMR binding of TAPBPR; design: species or system human
[2] = biological target: peptide-deficient H2-D^d/hβ2m/TAPBPR (Mus musculus, UniProt P01900); test: Fluorescence anisotropy competition with TAMRA-P18-I10; assay type: binding, murine H2-D^d, human β2m; conditions: negative control peptide, in words
[3] = biological target: H2-D^d/TAPBPR (MHC-I/TAPBPR) (Mus musculus, UniProt P01900); test: Thermodynamic cycle step 4: peptide binding to MHC-I/TAPBPR; design: species or system murine H2-D^d, human β2m; conditions: Fig. 6 mechanism, in words
[4] = biological target: peptide-deficient H2-D^d/hβ2m/TAPBPR complex (murine | human | not stated); test: NMR titration
[5] = biological target: peptide-deficient H2-D^d/hβ2m/TAPBPR complex (murine | human | not stated); test: fluorescence polarisation
biotinylated TAPBPR = biotinylated TAPBPR (UniProt Q9BX59); test: SPR
P18-I10/H2-D^d/hβ2m [6] = biological target: P18-I10/H2-D^d/hβ2m (murine | human | HIV); test: NMR titration

TAPBPR: molecular chaperone, TAP-binding protein related; luminal domain expressed in Drosophila S2 cells
TAPBPR binding to pMHC-I by NMR (P18-I10/H2-D^d/hβ2m [1]): tight complex
TAPBPR binding (SEC) (peptide-deficient H2-D^d): high-affinity complex
TAPBPR binding (SEC) (RGPGC/H2-D^d S73C): high-affinity complex
TAPBPR binding (SEC) (P18-I10/H2-D^d): high-affinity complex
TAPBPR binding (SEC) ([…]/HLA-B*15:01/hβ2m; 80 μM pMHC-I, 160 μM TAPBPR, room temperature 1 hour, HLA-B*15:01): No TAPBPR binding could be detected
koff implied if an interaction exists ([…]/HLA-B*15:01/hβ2m; HLA-B*15:01, inferred from lack of detectable binding (≫)): > 3 s⁻¹
TAPBPR binding (SEC) ([…]/HLA-B*27:02/hβ2m; 80 μM pMHC-I, 160 μM TAPBPR, room temperature 1 hour, HLA-B*27:02): No TAPBPR binding could be detected
koff implied if an interaction exists ([…]/HLA-B*27:02/hβ2m; HLA-B*27:02, inferred from lack of detectable binding (≫)): > 3 s⁻¹
TAPBPR binding (NMR) ([…]/HLA-A*01:01/hβ2m; 200 µM pMHC-I, two-fold molar excess TAPBPR, HLA-A*01:01): No TAPBPR binding could be detected
koff implied if an interaction exists ([…]/HLA-A*01:01/hβ2m; HLA-A*01:01, inferred from lack of detectable binding (≫)): > 3 s⁻¹

FVTI
stability and exchange in the DSF and FA assays [2]: minimal stability and exchange
affinity class of peptide [3]: low-affinity

^13C labeled P18-I10 (peptide)
Kd [4]: < 7.2 µM
koff [4]: < 80 s⁻¹

P18-I10 peptide
K2′ [5]: 0.186 µM
Kd [5]: 0.09 µM

H2-D^(d S73C)/β2m (complex)
koff (biotinylated TAPBPR): < 0.002 s⁻¹

B1: TAPBPR (TAP-binding protein related), luminal domain (domain or fragment)
chain: KPHPAEGQWRAVDVVLDCFLAKDGAHRGALASSEDRARASLVLKQVPVLDDGSLEDFTDFQGGTLAQDDPPIIFEASVDLVQIPQAEALLHADCSGKEVTCEISRYFLQMTETTVKTAAWFMANMQVSGGGPSISLVMKTPRVTKNEALWHPTLNLPLSPQGTVRTAVEFQVMTQTQSLSFLLGSSASLDCGFSMAPGLDLISVEWRLQHKGRGQLVYSWTAGQGQAVRKGATLEPAQLGMARDASLTLPGLTIQDEGTYICQITTSLYRAQQIIQLNIQASPKVRLSLANEALLPTLICDIAGYYPLDVVVTWTREELGGSPAQVSGASFSSLRQSVAGTYSISSSLTAEPGSAGATYTCQVTHISLEEPLGASTQVVPPERR
Kd (P18-I10/H2-D^d/hβ2m [6]): 32 µM
